Experimental data published in ChEMBL document CHEMBL1130766, “Phosphodiesterase inhibitory properties of losartan. Design and synthesis of new lead compounds” (Bioorg Med Chem Lett, 1998).

Legend:
Phosphodiesterase 3 [1] = biological target: T1, Phosphodiesterase 3 (Homo sapiens, UniProt Q14432+Q13370); assay: Inhibitory effect in cGMP-inhibited Phosphodiesterase 3 (PDE 3) isolated from guinea pig ventricular tissue.; format: protein assay, Cavia porcellus; conditions: target entry is the homologue from another species
Phosphodiesterase 4 [2] = biological target: T2, Phosphodiesterase 4 (Homo sapiens, UniProt P27815+Q08499+Q07343+Q08493); assay: Inhibitory effect in cAMP-specific Phosphodiesterase 4 (PDE 4) isolated from guinea pig ventricular tissue.; format: protein assay, Cavia porcellus; conditions: target entry is the homologue from another species
Phosphodiesterase 3 [3] = biological target: T1, Phosphodiesterase 3; assay: Inhibition of guinea pig ventricular Phosphodiesterase 3 (PDE 3) at 200 uM; format: protein assay; conditions: Cavia porcellus, target entry is the homologue from another species
Phosphodiesterase 4 [4] = biological target: T2, Phosphodiesterase 4; assay: Inhibition of guinea pig ventricular Phosphodiesterase 4 (PDE 4) at 200 uM; format: protein assay; conditions: Cavia porcellus, target entry is the homologue from another species
Phosphodiesterase 3 [5] = biological target: T1, Phosphodiesterase 3; assay: Inhibition of guinea pig ventricular Phosphodiesterase 3 (PDE 3); format: protein assay, Cavia porcellus; conditions: target entry is the homologue from another species

Row | SMILES | IC50 (Phosphodiesterase 3 [1]) | IC50 (Phosphodiesterase 4 [2]) | inhibition (Phosphodiesterase 3 [3]) | inhibition (Phosphodiesterase 4 [4]) | IC50 (Phosphodiesterase 3 [5])
1 | CC(C)c1nc(SCc2ccc(-c3ccccc3-c3nn[nH]n3)cc2)c2ccccc2n1 | 2.4 µM | 3.8 µM |  |  | 
2 | Cc1nc(SCc2ccc(-c3ccccc3-c3nn[nH]n3)cc2)c2ccccc2n1 | 4.8 µM | 15 µM |  |  | 
3 | CCCc1nc(SCc2ccc(-c3ccccc3-c3nn[nH]n3)cc2)c2cc(C)cc(C)c2n1 | 11 µM | 8.6 µM |  |  | 
4 | CCc1nc(NCc2ccc(-c3ccccc3-c3nn[nH]n3)cc2)c2ccccc2n1 | 24 µM | 21 µM |  |  | 
5 | CCc1nc(OCc2ccc(-c3ccccc3-c3nn[nH]n3)cc2)c2ccccc2n1 | 5.8 µM | 14 µM |  |  | 
6 | CCN(Cc1ccccc1-n1ncnn1)c1nc2nc3ccccc3n2s1 |  | 107 µM | 15% |  | 
7 | CCCCN(Cc1ccc(-c2ccccc2-n2ncnn2)cc1)c1nc2nc3ccccc3n2s1 |  |  | 50% | 48% | 
8 | CCCCc1nc(NCc2ccc(-c3ccccc3-c3nn[nH]n3)cc2)c2ccccc2n1 | 16 µM | 7.6 µM |  |  | 
9 | CCCCN(Cc1ccccc1-n1ncnn1)c1nc2nc3ccccc3n2s1 |  |  | 32% | 44% | 
10 | CCCCN(Cc1ccccc1)c1nc2nc3ccccc3n2s1 |  | 90 µM | 0% |  | 
11 | CCCc1nc(SCc2ccc(-c3ccccc3-c3nn[nH]n3)cc2)c2cc(C)ccc2n1 | 2.4 µM | 3.8 µM |  |  | 
12 | CCN(Cc1ccccc1)c1nc2nc3ccccc3n2s1 |  | 32 µM | 12% |  | 
13 | CCCCN(Cc1ccccc1-c1ccccc1)c1nc2nc3ccccc3n2s1 |  | 30 µM | 31% |  | 
14 | CCc1nc(SCc2ccc(-c3ccccc3-c3nn[nH]n3)cc2)c2ccccc2n1 | 7 µM | 3.3 µM |  |  | 
15 | CCCCc1nc(Cl)c(CO)n1Cc1ccc(-c2ccccc2-c2nnn[nH]2)cc1 [LOSARTAN] |  |  |  |  | 13 µM
16 | CCN(Cc1ccc(-c2ccccc2-n2ncnn2)cc1)c1nc2nc3ccccc3n2s1 |  | 74 µM |  |  | 125 µM
17 | CCCCc1nc(OCc2ccc(-c3ccccc3-c3nn[nH]n3)cc2)c2ccccc2n1 | 5.4 µM | 7.9 µM |  |  | 
18 | CCCc1nc(SCc2ccc(-c3ccccc3-c3nn[nH]n3)cc2)c2ccccc2n1 | 6.8 µM | 3.8 µM |  |  | 
19 | CCCCc1nc(SCc2ccc(-c3ccccc3-c3nn[nH]n3)cc2)c2ccccc2n1 | 8 µM | 2.9 µM |  |  | 
20 | CCCCN(Cc1ccccc1-c1ccccc1)c1nc2c3c(ccc2s1)CCCC3 |  | 42 µM | 15% |  | 
21 | CCN(Cc1ccccc1-c1ccccc1)c1nc2nc3ccccc3n2s1 |  | 48 µM | 41% |  | 
